In patent publication US20230270692A1, “COMPOUNDS FOR CHRONIC DISORDERS” (Pillai Universal LLC, priority 2020, published 2023):

Tests used:
[1] = Cytotoxicity in Calu-3 cells; assay type: cell-based; conditions: human, Calu-3 lung epithelial cells, read-out: 50% cytotoxic concentration (CC50)
Method: The antiviral activity of Compound I was assessed against SARS-CoV-2 in Calu-3 cultures. […] To determine if Compound I could inhibit replication, we first evaluated antiviral activity and cytotoxicity in the continuous human lung epithelial cell line Calu-3 cells.

[2] = 28-day oral sub-chronic toxicity (OECD 408); assay type: in vivo
Method: […] […] Rats in control groups were administrated orally with the same volume of distilled water (vehicle). During the experimental period, the body weights of all groups were measured once a week. Animals were also visually observed for mortality, changes in behavioral patterns, changes in physical appearance, and symptoms of illness. […] Blood samples were collected for the measurement of hematological (EDTA-2K coated tubes) and biochemical (dry tubes) parameters. After euthanasia, the rats were sacrificed and organs were removed for necropsy, organ weight measurement, and histopathological examination.
Urinalysis: On the last week of the treatment period, a urine test was conducted in all rat groups. Fresh urine was collected overnight from all animals, to determine specific gravity, pH, levels of leukocytes, nitrites, protein, glucose, ketones, blood, urobilinogen, and bilirubin. Urine samples were analyzed using an automatic urine analyzer and test strips.
Hematology and serum biochemistry: For the hematological investigation, all animals fasted overnight but were allowed access to water ad libitum. The rats were then anesthetized, and blood samples were collected from the abdominal aorta. Whole blood was collected in EDTA tubes (containing potassium salt of ethylenediamine-tetracetic acid) and processed immediately for hematological analysis. The parameters measured were red blood cell count (RBC), hematocrit (HCT), hemoglobin (HGB), mean corpuscular volume (MCV), mean corpuscular hemoglobin concentration (MCHC), mean corpuscular hemoglobin (MCH), white blood cell count (WBC), neutrophils (NEU), eosinophils (EOS), basophils (BASO), lymphocytes (LYM), and monocytes (MONO). The hematological analysis was performed using an automatic hematological analyzer. For the measurement of biochemical parameters, dry tubes containing collected blood were centrifuged at 3000 rpm at 5° C. for 15 min to obtain the serum. Serum samples were analyzed using an automated biochemistry analyzer. The clinical biochemistry parameters included, total serum protein (TP), albumin (ALB), total bilirubin (T-BIL), alkaline phosphatase (ALP), alanine aminotransferase (ALT), aspartate aminotransferase (AST), uric acid (URIC), urea (UREA), creatinine (CREA), low-density lipoprotein-cholesterol (LDL-C), high-density lipoprotein-cholesterol (HDL-C), total cholesterol (TC), triglycerides (TG), and glucose (GLU). Serum electrolytes such as calcium (Ca2+), sodium (Nat), potassium (K^+), and chloride (CF) were also determined.
Necropsy and organ weight: All groups of rats were subjected to gross necropsy, which included the examination of the thoracic organs, external surface, and all of the internal organs. Vital organs were carefully examined macroscopically for any type of abnormalities. Thereafter, various organs, including the heart, liver, kidneys, stomach, lung, spleen, adrenals, thymus, epididymis, testes, uterus, and ovaries were surgically removed, cleaned with ice-cold saline solution, placed on absorbent papers, and then weighed (absolute organ weight in grams). The relative organ weight (ROW) of each animal was then calculated as follows: ROW=[Absolute organ weight (g)÷Bodyweight of rat on sacrifice day (g)]×100.
Histopathology: The major organs (lung, heart, liver, kidney) and reproductive organs (testis and ovary) were removed for histopathological examinations. After weight measurement, the organs were quickly fixed in 10% buffered formalin (pH 7.4). Following fixation, tissue specimens were dehydrated in a graded series of ethanol (70-100%), cleared in toluene, and finally enclosed in paraffin. Thereafter, 5-μm thin sections were prepared using a microtome (Leica) and stained with Haematoxylin and Eosin (H & E) prior to microscopic examination.

For `COc1cc(/C=C/C(=O)/C=C/C=C/c2cc(OC)c(O)c(OC)c2)cc(OC)c1` [Compound I], the CC50 [1] was over 100 µM, the “plasma levels of AST, ALT, ALP activities” value ([2]; 200, 500, 1000 and 2000 mg/kg, both sexes) was “insignificant changes” and the “food and water intakes” value ([2]; 28 d, P>0.05 vs control) was “no significant changes”. For the same molecule, the body weight ([2]; acute and subacute toxicity groups) was “did not elicit any deleterious effect on body weight”, the “level of creatinine, electrolytes, urea or uric acid” value ([2]; all doses, both sexes) was “no significant difference” and the “WBC count and subtypes” value ([2]; any of the doses) was “did not cause any significant changes”. For the same molecule, the “hematological parameters (WBC, RBC, PCV, hemoglobin)” value ([2]; compared to the control group) was “not significantly altered”, the “histopathology: liver” value ([2]; female rats) was “almost normal cellular architecture with normal hepataocytes” and the “Relative organ weight (ROW)” value ([2]; liver, brain, kidney, heart, spleen) was “did not elicit any adverse effects to the vital organs”. For the same molecule, the “histopathology: heart” value ([2]; male and female rats) was “appeared normal”, the “histopathology: kidney” value ([2]; male and female rats) was “almost normal size and shape of glomeruli, tubules, intestinum and blood vesicles” and the “histopathology: lungs” value ([2]; male and female rats) was “no lymphocytic infiltrations were observed”. The “histopathology: pancreas” value ([2]; male and female rats) was “almost no abnormalities were observed”, the “histopathology: stomach” value ([2]; male and female rats) was “normal cellular architecture” and the “histopathology: liver” value ([2]; male rats) was “normal hepatocytes along with normal portal triads, sinusoidal spaces and central venous system”. For the same molecule, the “histopathology: reproductive organs (testis, ovary)” value ([2]; rat, in vivo) was “normal pathology”, the “levels of total protein, albumin, conjugated bilirubin and bilirubin” value ([2]; rat, in vivo) was “no significant difference” and the treatment related death ([2]; subacute, 28-day, both sexes) was “no treatment related death was observed”.
